In the assay the target is T1, Activin receptor type-1 [172-499,R206H] (Homo sapiens, UniProt Q04771, R206H).
T1 construct: 172-499
Put plainly: In Vitro Enzyme Inhibition Using a Biochemical Peptide Phosphorylation Assay- Caliper Assay.

In general, IC50 refers to the concentration that gives 50% inhibition.

Molecules are shown by their SMILES.

T1 sequence (Q04771 172-499 R206H): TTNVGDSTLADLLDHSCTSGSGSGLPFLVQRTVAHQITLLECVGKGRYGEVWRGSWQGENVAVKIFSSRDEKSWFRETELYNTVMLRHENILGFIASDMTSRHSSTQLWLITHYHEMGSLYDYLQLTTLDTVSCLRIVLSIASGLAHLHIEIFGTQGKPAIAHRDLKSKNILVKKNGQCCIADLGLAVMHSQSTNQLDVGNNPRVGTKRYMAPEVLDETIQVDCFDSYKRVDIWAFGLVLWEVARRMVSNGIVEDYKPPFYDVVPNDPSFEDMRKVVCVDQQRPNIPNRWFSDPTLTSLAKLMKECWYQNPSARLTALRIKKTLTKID

Compound `CC(C)CN1c2ccc(-c3cncc(-c4ccc(=O)n(C(C)C)c4)c3)cc2CS1(=O)=O` [US11160797, Example 50] had a concentration for half-maximal inhibition (IC50) of 140 nM.

Values taken from BindingDB's records for patent US11160797 (NOVARTIS AG, 2021).
